Test results published in ChEMBL document CHEMBL6121066, “Structure-Activity Relationship Studies of DNA Methyltransferase 1 Monovalent Degraders” (J Med Chem, 2025).
pIC50: −log10 of the molar value. The source made the active and inactive calls. No cut-off for these calls is given here.

Key:
[1] = biological target: DNA (cytosine-5)-methyltransferase 3A (Homo sapiens) (UniProt Q9Y6K1); assay: Inhibition of human DNMT3A using lambda DNA and SAM as substrate at 1 uM by radioisotope-based MT HotSpot assay relative to control
[2] = test system: HCT-116; assay: Induction of molecular glue effect mediated DNMT1 degradation in human HCT-116 cells assessed as reduction in DNMT1 protein level by measuring half-life at 500 nM preincubated with cycloheximide for 2 hrs followed by compound administration and measured after 24 hrs by Western blot analysis; format: cell-based
[3] = biological target: Histone-lysine N-methyltransferase, H3 lysine-79 specific (Homo sapiens) (UniProt Q8TEK3); assay: Inhibition of human DOT1L using oligo nucleosomes and SAM as substrate at 1 uM by radioisotope-based MT HotSpot assay relative to control
[4] = test system: HCT-116; assay: Induction of molecular glue effect mediated DNMT3B degradation in human HCT-116 cells assessed as reduction in DNMT3B protein level at 500 nM incubated for 24 hrs by Western blot analysis; format: cell-based
[5] = Induction of molecular glue effect mediated DNMT1 degradation in human MDA-MB-468 cells assessed as reduction in DNMT1 protein level incubated for 24 hrs by Western blot analysis; format: cell-based; conditions: MDA-MB-468, 24 h
[6] = test system: HCT-116; assay: Induction of molecular glue effect mediated DNMT1 degradation in human HCT-116 cells transfected with NEDD4 siRNA assessed as reduction in DNMT1 protein level at 100 nM measured after 24 hrs by Western blot analysis; format: cell-based
[7] = test system: HCT-116; assay: Induction of molecular glue effect mediated DNMT1 degradation in human HCT-116 cells assessed as reduction in DNMT1 protein level at 100 nM preincubated with lysosome inhibitor CQ for 2 hrs followed by compound addition and measured after 24 hrs by Western blot analysis; format: cell-based
[8] = test system: MDA-MB-468; assay: Antiproliferative activity against human MDA-MB-468 cells assessed as inhibition of cell growth upto 10 uM incubated for 7 days by CCK8 assay relative to control; format: functional; conditions: time 7 day, up to 10 µM
[9] = test system: HCT-116; assay: Induction of molecular glue effect mediated DNMT3A degradation in human HCT-116 cells assessed as reduction in DNMT3A protein level at 500 nM incubated for 24 hrs by Western blot analysis; format: cell-based
[10] = biological target: T1, Histone-lysine N-methyltransferase EHMT2 (Homo sapiens) (UniProt Q96KQ7); assay: Inhibition of human G9a using histone H3 and SAM as substrate at 1 uM by radioisotope-based MT HotSpot assay relative to control
T1 sequence (whole entry): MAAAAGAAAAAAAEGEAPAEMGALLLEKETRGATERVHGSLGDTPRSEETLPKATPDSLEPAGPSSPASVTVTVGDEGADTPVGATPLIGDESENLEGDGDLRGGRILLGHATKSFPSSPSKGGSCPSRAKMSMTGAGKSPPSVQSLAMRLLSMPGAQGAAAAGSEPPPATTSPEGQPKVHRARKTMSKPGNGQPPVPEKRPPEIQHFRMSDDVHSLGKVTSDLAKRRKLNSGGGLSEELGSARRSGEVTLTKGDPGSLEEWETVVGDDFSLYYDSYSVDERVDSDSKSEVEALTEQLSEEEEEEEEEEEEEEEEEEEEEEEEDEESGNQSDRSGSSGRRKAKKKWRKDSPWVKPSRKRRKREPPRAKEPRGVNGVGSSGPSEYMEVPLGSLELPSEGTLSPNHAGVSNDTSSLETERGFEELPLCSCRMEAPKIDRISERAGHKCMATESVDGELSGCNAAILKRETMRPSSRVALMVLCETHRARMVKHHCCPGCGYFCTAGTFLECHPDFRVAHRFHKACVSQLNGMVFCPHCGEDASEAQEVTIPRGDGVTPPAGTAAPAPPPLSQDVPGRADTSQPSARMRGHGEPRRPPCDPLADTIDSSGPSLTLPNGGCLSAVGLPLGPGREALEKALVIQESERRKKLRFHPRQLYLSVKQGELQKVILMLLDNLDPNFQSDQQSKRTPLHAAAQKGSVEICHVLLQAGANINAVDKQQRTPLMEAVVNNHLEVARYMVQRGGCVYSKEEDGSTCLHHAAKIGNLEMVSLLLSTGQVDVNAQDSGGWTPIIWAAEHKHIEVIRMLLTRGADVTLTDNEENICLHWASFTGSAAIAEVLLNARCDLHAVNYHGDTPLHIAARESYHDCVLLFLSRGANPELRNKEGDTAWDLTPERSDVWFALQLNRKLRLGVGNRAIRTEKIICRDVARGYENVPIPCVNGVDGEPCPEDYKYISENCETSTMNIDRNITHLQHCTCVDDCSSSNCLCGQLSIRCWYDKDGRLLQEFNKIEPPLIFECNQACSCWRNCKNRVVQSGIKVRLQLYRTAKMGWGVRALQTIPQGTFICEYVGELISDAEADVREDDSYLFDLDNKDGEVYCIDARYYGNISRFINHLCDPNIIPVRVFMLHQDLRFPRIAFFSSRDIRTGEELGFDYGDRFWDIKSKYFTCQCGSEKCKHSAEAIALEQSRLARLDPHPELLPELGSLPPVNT

[11] = test system: HCT-116; assay: Antiproliferative activity against human HCT-116 cells assessed as inhibition of cell growth upto 15 uM incubated for 7 days by CCK8 assay relative to control; format: functional; conditions: time 7 day, up to 15 µM
[12] = test system: HCT-116; assay: Induction of molecular glue effect mediated DNMT1 degradation in human HCT-116 cells assessed as reduction in DNMT1 protein level at 100 nM preincubated with MG132 for 2 hrs followed by compound addition and measured after 24 hrs by Western blot analysis; format: cell-based
[13] = test system: HCT-116; assay: Induction of molecular glue effect mediated DNMT1 degradation in human HCT-116 cells assessed as reduction in DNMT1 protein level by measuring maximal efficacy at 1 uM incubated for 24 hrs by Western blot analysis relative to control; format: cell-based
[14] = biological target: Protein arginine N-methyltransferase 1 (Homo sapiens) (UniProt Q99873); assay: Inhibition of human PRMT1 using histone H4 and SAM as substrate at 1 uM by radioisotope-based MT HotSpot assay relative to control
[15] = biological target: DNA (cytosine-5)-methyltransferase 3B (Homo sapiens) (UniProt Q9UBC3); assay: Inhibition of human full-length DNMT3B using lambda DNA and SAM as substrate at 1 uM by radioisotope-based MT HotSpot assay relative to control
[16] = biological target: DNA (cytosine-5)-methyltransferase 1 (Homo sapiens, UniProt P26358); assay: Inhibition of human DNMT1 (350 to 1600 residues) extracted from Escherichia coli BL21 (DE3)-codon plus-RIL cells in presence of SAM and hemimethylated DNA
[17] = test system: NCI-H1299; assay: Effect on DNMT1 mRNA level in human NCI-H1299 cells at 500 nM incubated for 24 hrs by RT-qPCR analysis; format: functional, cell-based
[18] = test system: HCT-116; assay: Induction of molecular glue effect mediated DNMT1 degradation in human HCT-116 cells assessed as reduction in DNMT1 protein level at 100 nM preincubated with heclin for 2 hrs followed by compound addition and measured after 24 hrs by Western blot analysis; format: cell-based
[19] = test system: HCT-116; assay: Effect on DNMT1 mRNA level in human HCT-116 cells at 500 nM incubated for 24 hrs by RT-qPCR analysis; format: functional, cell-based

DNA (cytosine-5)-methyltransferase 1, sequence (P26358 whole entry, the tested form may be a part): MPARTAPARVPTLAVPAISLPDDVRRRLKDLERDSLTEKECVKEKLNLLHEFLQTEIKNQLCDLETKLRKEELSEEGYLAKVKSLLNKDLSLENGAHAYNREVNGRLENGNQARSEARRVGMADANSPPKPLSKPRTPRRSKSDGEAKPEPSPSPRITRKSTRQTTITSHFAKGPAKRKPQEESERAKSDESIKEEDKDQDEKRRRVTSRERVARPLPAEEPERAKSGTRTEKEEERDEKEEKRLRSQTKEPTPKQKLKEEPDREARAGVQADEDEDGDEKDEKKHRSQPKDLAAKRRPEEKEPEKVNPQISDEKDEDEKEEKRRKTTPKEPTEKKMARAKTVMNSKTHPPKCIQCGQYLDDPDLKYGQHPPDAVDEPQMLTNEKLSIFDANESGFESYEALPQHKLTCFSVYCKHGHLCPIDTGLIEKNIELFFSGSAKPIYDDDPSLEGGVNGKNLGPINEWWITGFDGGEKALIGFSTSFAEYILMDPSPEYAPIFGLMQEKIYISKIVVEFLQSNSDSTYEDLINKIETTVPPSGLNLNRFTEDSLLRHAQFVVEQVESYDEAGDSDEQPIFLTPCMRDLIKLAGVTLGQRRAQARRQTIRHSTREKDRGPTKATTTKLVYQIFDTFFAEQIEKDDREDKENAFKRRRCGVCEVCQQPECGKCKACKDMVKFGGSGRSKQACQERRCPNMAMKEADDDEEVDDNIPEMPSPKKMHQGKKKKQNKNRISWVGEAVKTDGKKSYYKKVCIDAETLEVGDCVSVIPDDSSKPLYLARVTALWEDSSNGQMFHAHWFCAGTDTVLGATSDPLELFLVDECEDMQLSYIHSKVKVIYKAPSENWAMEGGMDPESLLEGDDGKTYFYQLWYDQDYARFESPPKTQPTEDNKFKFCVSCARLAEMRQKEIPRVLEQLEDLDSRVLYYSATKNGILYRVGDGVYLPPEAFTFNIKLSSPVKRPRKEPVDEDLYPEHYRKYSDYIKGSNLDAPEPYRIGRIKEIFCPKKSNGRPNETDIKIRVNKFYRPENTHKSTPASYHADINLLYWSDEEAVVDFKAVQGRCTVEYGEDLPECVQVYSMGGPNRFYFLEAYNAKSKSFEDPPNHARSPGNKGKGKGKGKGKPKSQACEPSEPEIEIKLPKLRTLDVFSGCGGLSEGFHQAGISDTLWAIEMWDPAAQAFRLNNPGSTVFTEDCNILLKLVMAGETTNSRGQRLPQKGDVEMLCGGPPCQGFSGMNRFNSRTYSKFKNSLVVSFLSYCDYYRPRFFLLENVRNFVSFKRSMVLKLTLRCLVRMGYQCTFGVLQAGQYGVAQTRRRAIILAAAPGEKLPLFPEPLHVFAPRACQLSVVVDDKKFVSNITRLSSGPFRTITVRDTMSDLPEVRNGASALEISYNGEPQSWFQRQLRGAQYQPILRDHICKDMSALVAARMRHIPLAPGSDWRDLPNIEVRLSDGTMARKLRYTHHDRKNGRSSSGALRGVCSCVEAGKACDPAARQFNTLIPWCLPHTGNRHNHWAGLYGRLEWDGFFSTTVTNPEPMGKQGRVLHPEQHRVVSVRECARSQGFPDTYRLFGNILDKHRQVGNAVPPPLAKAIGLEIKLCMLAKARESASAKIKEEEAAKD
Histone-lysine N-methyltransferase, H3 lysine-79 specific (Homo sapiens), sequence (Q8TEK3 whole entry, looked up): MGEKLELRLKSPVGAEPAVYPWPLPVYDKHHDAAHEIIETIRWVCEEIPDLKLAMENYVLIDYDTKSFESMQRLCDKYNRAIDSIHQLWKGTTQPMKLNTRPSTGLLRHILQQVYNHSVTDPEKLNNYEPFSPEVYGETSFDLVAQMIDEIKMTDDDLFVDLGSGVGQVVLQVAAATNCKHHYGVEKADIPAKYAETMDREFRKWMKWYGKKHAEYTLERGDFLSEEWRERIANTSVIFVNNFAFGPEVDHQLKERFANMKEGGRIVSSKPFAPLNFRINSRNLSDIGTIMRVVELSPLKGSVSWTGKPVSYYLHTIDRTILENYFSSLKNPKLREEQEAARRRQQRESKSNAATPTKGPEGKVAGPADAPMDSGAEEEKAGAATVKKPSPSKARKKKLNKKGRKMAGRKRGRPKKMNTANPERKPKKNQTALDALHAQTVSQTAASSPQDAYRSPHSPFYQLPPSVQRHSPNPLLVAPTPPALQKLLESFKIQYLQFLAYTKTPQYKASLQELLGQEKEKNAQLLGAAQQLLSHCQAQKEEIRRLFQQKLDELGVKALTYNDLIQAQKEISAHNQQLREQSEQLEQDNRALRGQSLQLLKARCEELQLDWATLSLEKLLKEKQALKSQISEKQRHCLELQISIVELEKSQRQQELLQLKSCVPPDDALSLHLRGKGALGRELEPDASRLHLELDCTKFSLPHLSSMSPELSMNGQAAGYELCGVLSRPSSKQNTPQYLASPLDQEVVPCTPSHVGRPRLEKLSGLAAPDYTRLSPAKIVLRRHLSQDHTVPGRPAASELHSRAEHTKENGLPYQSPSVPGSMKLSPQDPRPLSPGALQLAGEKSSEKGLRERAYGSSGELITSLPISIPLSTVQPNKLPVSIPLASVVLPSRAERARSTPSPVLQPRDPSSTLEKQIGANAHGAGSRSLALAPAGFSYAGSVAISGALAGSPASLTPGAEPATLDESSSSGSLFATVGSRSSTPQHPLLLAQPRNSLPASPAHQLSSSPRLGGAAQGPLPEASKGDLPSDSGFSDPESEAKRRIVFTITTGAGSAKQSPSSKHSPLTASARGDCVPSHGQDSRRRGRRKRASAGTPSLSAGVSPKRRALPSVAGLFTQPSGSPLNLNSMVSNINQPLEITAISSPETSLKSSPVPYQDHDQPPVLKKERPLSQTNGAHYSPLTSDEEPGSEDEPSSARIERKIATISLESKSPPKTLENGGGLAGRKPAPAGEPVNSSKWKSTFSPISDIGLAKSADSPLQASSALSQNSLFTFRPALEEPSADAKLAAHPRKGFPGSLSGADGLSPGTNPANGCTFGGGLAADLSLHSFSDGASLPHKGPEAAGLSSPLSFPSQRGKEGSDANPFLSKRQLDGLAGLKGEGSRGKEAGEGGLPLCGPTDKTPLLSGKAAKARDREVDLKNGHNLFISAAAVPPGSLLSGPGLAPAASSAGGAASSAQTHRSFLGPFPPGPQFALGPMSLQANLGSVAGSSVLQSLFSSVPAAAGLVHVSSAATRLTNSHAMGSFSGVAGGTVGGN
DNA (cytosine-5)-methyltransferase 3A (Homo sapiens), sequence (Q9Y6K1 whole entry, looked up): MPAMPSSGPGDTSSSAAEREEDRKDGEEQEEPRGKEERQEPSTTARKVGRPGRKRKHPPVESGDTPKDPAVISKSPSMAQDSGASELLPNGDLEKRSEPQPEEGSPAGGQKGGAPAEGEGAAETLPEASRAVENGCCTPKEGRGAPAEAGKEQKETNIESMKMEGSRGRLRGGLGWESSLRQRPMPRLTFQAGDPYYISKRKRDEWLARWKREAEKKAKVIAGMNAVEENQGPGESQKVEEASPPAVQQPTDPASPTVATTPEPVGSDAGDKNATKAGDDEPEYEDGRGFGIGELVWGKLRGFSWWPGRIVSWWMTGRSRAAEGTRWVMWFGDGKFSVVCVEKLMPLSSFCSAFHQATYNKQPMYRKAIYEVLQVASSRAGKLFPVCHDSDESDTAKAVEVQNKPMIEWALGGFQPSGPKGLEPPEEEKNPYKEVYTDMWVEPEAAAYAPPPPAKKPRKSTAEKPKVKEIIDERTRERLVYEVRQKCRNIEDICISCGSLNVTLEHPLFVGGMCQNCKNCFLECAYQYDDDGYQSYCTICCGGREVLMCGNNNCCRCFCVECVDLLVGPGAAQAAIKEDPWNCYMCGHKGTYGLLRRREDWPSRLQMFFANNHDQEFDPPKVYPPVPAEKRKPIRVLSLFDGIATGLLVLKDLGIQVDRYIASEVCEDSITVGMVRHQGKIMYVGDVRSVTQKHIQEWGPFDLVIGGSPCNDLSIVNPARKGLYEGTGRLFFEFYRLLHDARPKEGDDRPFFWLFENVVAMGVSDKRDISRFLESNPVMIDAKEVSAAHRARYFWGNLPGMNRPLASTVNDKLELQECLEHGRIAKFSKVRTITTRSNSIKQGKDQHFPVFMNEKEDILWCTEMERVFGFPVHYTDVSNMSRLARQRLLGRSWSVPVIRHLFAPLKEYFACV
Protein arginine N-methyltransferase 1 (Homo sapiens), sequence (Q99873 whole entry, looked up): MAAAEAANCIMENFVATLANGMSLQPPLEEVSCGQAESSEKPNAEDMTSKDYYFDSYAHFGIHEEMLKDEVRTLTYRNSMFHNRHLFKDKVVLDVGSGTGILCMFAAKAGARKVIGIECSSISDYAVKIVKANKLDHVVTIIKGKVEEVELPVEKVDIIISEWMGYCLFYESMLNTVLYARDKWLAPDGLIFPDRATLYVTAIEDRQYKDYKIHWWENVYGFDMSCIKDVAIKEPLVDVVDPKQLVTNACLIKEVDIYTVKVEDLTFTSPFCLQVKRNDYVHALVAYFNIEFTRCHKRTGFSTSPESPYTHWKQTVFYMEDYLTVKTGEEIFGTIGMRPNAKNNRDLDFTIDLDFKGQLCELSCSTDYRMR

CCc1c(C#N)c(SC(C(N)=O)c2ccccc2)nc(N(C)CC(=O)NC)c1C#N (centres undefined)
inhibition [1]: < 20% | T1/2 [2]: < 4 h | inhibition [3]: < 20% | Activity [4]: inactive | DC50 [5]: 254 nM | Activity [6]: Active | Activity [7]: Active | inhibition (INH) [8]: <50% | Activity [9]: inactive | inhibition [10]: < 20% | inhibition (INH) [11]: <50% | Activity [12]: inactive | Emax [13]: 89% | inhibition [14]: < 20% | inhibition [15]: < 20% | pIC50 [16]: 6.37 | Activity [17]: inactive | Activity [18]: Not active; Partial Rescue Of Degradation Observed | Activity [19]: inactive
